The conditions of series [1]: visual observation.
Series [2] can be described thus: Molar enthalpy of transition or fusion. To be noted: Crystal; DSC.
Series [3] in a line: Solid-liquid equilibrium temperature. To be noted: Crystal, Closed cell.

± gives the expanded uncertainty stated by the source.

Turning to `CCCCCCCCCCCCCCCCCCCCO` [1-eicosanol], the Normal melting temperature in series [1] (Crystal 1) was found to be 64.52 ± 0.5 °C.

Consider `CCCCCCCCCCCCCCCCO` [1-hexadecanol], for which the Normal melting temperature in series [1] (Crystal 1) was found to be 49.1 ± 0.5 °C.

Turning to `CCCCCCCCCCCCCCCCCCO` [1-octadecanol], in series [1] (Crystal 1), the Normal melting temperature came out at 57.00 ± 0.5 °C.

Turning to `CCC(=O)C(C)=O` [2,3-pentanedione], the Normal melting temperature in series [1] (Crystal 1) was -52.00 ± 0.5 °C. In addition, the “Molar enthalpy of transition or fusion” value in series [2] stood at 1.87 ± 0.055 kcal/mol. Also, the Solid-liquid equilibrium temperature in series [3] (697870 kPa) was found to be 293.15 ± 2.6 K; in series [3] (807350 kPa), 303.15 ± 2.6 K; in series [3] (947230 kPa) it was 313.15 ± 2.5 K; in series [3] (1117520 kPa) it was 323.15 ± 2.5 K; in series [3] (1318200 kPa), 333.15 ± 2.5 K; in series [3] (1549280 kPa), 343.15 ± 2.8 K.

As for `C1CCCCC1` [cyclohexane], the Normal melting temperature in series [1] (Crystal) is 7.0 ± 0.25 °C. Moreover, the Solid-liquid equilibrium temperature stood at 293.15 ± 0.52 K in series [3] (23390 kPa); 303.15 ± 0.89 K in series [3] (45610 kPa); 313.15 ± 1.3 K in series [3] (67600 kPa); 323.15 ± 1.7 K in series [3] (89340 kPa); 333.15 ± 2.1 K in series [3] (110840 kPa); 343.15 ± 2.5 K in series [3] (132100 kPa).

Turning to `CCCCCCCCCCCCCCCCCCCC` [eicosane], the Normal melting temperature in series [1] (Crystal) was 36.36 ± 0.25 °C.

For the molecule `CCCCCCCCCCCCCCCC` [hexadecane], in series [1] (Crystal), the Normal melting temperature came to 18.30 ± 0.25 °C.

Consider `CCCCCCCCCCCCC` [tridecane], for which the Normal melting temperature in series [1] (Crystal) is -4.14 ± 0.35 °C. Further, the Solid-liquid equilibrium temperature in series [3] (132350 kPa) is reported as 293.15 ± 0.9 K; in series [3] (196230 kPa) it was 303.15 ± 1.2 K; in series [3] (264630 kPa) it was 313.15 ± 1.6 K; in series [3] (337550 kPa), 323.15 ± 1.9 K; in series [3] (415000 kPa), 333.15 ± 2.1 K; in series [3] (496960 kPa), 343.15 ± 2.5 K.

Source of the values: the NIST ThermoML archive (doi:10.1016/j.fluid.2006.02.001).
